Test results: patent publication US20200361895A1, “NOVEL SULFONAMIDE CARBOXAMIDE COMPOUNDS” (Inflazome Limited, priority 2017, published 2020)
Counter-ions that a name gives are not always drawn.

Experiments:
NLRP3 [1] = biological target: T1, NLRP3 (Homo sapiens, UniProt Q96P20); test: THP-1 cells pyroptosis assay (LPS + nigericin, resazurin readout; THP IC50); assay type: cell-based; design: Seed THP-1 cells (25,000 cells/well) containing 1.0 μg/ml LPS in 40 μl of RPMI medium; host or cells: THP-1 cells
T1 sequence (Q96P20 whole entry): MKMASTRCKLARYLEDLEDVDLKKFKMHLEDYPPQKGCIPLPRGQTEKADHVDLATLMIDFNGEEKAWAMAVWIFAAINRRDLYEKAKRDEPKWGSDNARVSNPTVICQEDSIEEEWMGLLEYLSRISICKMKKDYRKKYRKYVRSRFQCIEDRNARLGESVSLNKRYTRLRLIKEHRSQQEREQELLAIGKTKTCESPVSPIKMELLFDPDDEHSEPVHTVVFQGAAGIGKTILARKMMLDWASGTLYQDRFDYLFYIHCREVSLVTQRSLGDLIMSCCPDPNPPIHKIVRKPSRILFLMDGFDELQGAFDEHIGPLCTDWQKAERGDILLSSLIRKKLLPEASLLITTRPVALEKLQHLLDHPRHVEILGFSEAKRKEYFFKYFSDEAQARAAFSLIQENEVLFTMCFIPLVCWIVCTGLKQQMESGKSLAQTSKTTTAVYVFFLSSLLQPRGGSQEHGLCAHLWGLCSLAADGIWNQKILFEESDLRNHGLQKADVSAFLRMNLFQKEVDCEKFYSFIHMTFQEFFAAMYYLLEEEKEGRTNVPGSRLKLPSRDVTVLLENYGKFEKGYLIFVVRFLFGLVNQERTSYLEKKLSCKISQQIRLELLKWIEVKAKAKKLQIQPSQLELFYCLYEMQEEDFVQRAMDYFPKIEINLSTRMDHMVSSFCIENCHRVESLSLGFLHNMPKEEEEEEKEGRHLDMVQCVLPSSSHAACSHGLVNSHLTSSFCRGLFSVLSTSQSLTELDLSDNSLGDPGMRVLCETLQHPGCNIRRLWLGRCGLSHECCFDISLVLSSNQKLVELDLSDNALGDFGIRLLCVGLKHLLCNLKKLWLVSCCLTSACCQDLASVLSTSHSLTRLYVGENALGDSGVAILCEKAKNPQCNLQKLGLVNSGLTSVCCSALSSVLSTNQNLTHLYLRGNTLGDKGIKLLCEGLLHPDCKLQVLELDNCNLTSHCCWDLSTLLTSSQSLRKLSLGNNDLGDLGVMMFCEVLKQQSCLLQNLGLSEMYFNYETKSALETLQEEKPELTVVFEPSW
Outline: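 IC50 from 4-parameter fit of resazurin fluorescence (100 μM, 1-2 hrs), reflecting surviving cells after pyroptosis. LPS-primed (1 μg/ml) THP-1 cells in FBS-free RPMI got compound for 3 hrs at 37° C (top 10 μM, half-log, 8 points), then nigericin 5 μM for 1 hr.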

NLRP3 [2] = biological target: T1, NLRP3; test: Human whole blood IL1β release assay (LPS + nigericin, AlphaLisa IL-1β; HWB IC50); assay type: cell-based; design: Human whole blood in Li-heparin tubes was obtained from healthy donors from a volunteer donor panel; from tissue; host or cells: human whole blood from healthy donors; details: IL-1β release
Outline: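 IL-1β in plasma supernatant quantified by AlphaLisa after nigericin (10 μM final, 1 h, 37 °C) triggering of human whole blood that had been preincubated 3 h with LPS (1 μg/ml) plus compound (half-log, 8 points, from 10 μM). IC50 by variable-slope four-parameter regression.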

SMILES | IC50 (NLRP3 [1]) [nM] | IC50 (NLRP3 [2]) [nM]
COc1cc(-c2ccc3c(c2NC(=O)NS(=O)(=O)c2ccn(C4CCC4)n2)CCO3)c(F)cn1 [Example 281, 1-Cyclobutyl-N-((5-(5-fluoro-2-methoxypyridin-4-yl)-2,3-dihydrobenzofuran-4-yl)carbamoyl)-1H-pyrazole-3-sulfonamide, sodium salt] | ≤ 500 | ≤ 500
COc1cc(-c2ccc3c(c2NC(=O)NS(=O)(=O)c2ccc(C(C)C)c(CN(C)C)c2)CCC3)ccn1 [Example 282, 3-((Dimethylamino)methyl)-4-isopropyl-N-((5-(2-methoxypyridin-4-yl)-2,3-dihydro-1H-inden-4-yl)carbamoyl)benzenesulfonamide, sodium salt] | ≤ 500 | ≤ 500
COc1cc(-c2ccc3c(c2NC(=O)NS(=O)(=O)OC2CCN(C)C2)CCC3)ccn1 (stereo not shown) [Example 284, 1-Methylpyrrolidin-3-yl (5-(2-methoxypyridin-4-yl)-2,3-dihydro-1H-inden-4-yl)carbamoylsulfamate] | ≤ 500 | ≤ 1000
CC(C)n1ccc(S(=O)(=O)NC(=O)Nc2c(-c3ccnc(N)c3)ccc3c2CCC3)n1 [Example 285, N-((5-(2-Aminopyridin-4-yl)-2,3-dihydro-1H-inden-4-yl)carbamoyl)-1-isopropyl-1H-pyrazole-3-sulfonamide] | ≤ 500 | ≤ 5000
CC(C)n1ccc(S(=O)(=O)NC(=O)Nc2c(-c3ccnc(Oc4ccccc4)c3)ccc3c2CCC3)n1 [Example 286, 1-Isopropyl-N-((5-(2-phenoxypyridin-4-yl)-2,3-dihydro-1H-inden-4-yl)carbamoyl)-1H-pyrazole-3-sulfonamide, sodium salt] | ≤ 500 | ≤ 10000
CC(C)n1ccc(S(=O)(=O)NC(=O)Nc2c(-c3ccnc(OC4CCN(C)CC4)c3)ccc3c2CCC3)n1 [Example 287, 1-Isopropyl-N-((5-(2-((1-methylpiperidin-4-yl)oxy)pyridin-4-yl)-2,3-dihydro-1H-inden-4-yl)carbamoyl)-1H-pyrazole-3-sulfonamide, sodium salt] | ≤ 500 | ≤ 500
CC(C)n1ccc(S(=O)(=O)NC(=O)Nc2c(-c3ccnc(OC4CCCOC4)c3)ccc3c2CCC3)n1 (stereo not shown) [Example 288, 1-Isopropyl-N-((5-(2-((tetrahydro-2H-pyran-3-yl)oxy)pyridin-4-yl)-2,3-dihydro-1H-inden-4-yl)carbamoyl)-1H-pyrazole-3-sulfonamide, sodium salt] | ≤ 500 | ≤ 5000
COCC(C)Oc1cc(-c2ccc3c(c2NC(=O)NS(=O)(=O)c2ccn(C(C)C)n2)CCC3)ccn1 (stereo not shown) [Example 289, 1-Isopropyl-N-((5-(2-((1-methoxypropan-2-yl)oxy)pyridin-4-yl)-2,3-dihydro-1H-inden-4-yl)carbamoyl)-1H-pyrazole-3-sulfonamide, sodium salt] | ≤ 500 | ≤ 5000
[2H]C([2H])([2H])Oc1cc(-c2ccc3c(c2NC(=O)NS(=O)(=O)c2ccn(C4CCC4)n2)CCC3)ccn1 [Example 290, 1-Cyclobutyl-N-((5-(2-(methoxy-d3)pyridin-4-yl)-2,3-dihydro-1H-inden-4-yl)carbamoyl)-1H-pyrazole-3-sulfonamide, sodium salt] | ≤ 500 | ≤ 500
CC(C)n1ccc(S(=O)(=O)NC(=O)Nc2c(-c3ccnc(OC4CCOC4)c3)ccc3c2CCC3)n1 (stereo not shown) [Example 291, 1-Isopropyl-N-((5-(2-((tetrahydrofuran-3-yl)oxy)pyridin-4-yl)-2,3-dihydro-1H-inden-4-yl)carbamoyl)-1H-pyrazole-3-sulfonamide, sodium salt] | ≤ 500 | ≤ 1000
CC(C)n1ccc(S(=O)(=O)NC(=O)Nc2c(-c3ccnc(OC4CCOCC4)c3)ccc3c2CCC3)n1 [Example 292, 1-Isopropyl-N-((5-(2-((tetrahydro-2H-pyran-4-yl)oxy)pyridin-4-yl)-2,3-dihydro-1H-inden-4-yl)carbamoyl)-1H-pyrazole-3-sulfonamide, sodium salt] | ≤ 500 | ≤ 1000
COc1cc(-c2ccc3c(c2NC(=O)NS(=O)(=O)c2coc(C4CC4)n2)CCC3)ccn1 [Example 293, 2-Cyclopropyl-N-((5-(2-methoxypyridin-4-yl)-2,3-dihydro-1H-inden-4-yl)carbamoyl)oxazole-4-sulfonamide, sodium salt] | ≤ 500 | ≤ 5000
CC(C)n1ccc(S(=O)(=O)NC(=O)Nc2c(-c3ccnc(OC4CCC4)c3)ccc3c2CCC3)n1 [Example 294, N-((5-(2-Cyclobutoxypyridin-4-yl)-2,3-dihydro-1H-inden-4-yl)carbamoyl)-1-isopropyl-1H-pyrazole-3-sulfonamide, sodium salt] | ≤ 500 | ≤ 5000

The remaining lines, values ahead:

IC50 (NLRP3 [1]) [nM] | IC50 (NLRP3 [2]) [nM] | SMILES
≤ 500 | ≤ 500 | COc1cc(-c2ccc3c(c2NC(=O)NS(=O)(=O)c2ccn(C4CC4)n2)CCO3)c(F)cn1 [Example 265, 1-Cyclopropyl-N-((5-(5-fluoro-2-methoxypyridin-4-yl)-2,3-dihydrobenzofuran-4-yl)carbamoyl)-1H-pyrazole-3-sulfonamide, sodium salt]
≤ 500 | ≤ 1000 | O=C(Nc1c(-c2ccnc(OC3CC3)c2)ccc2c1CCO2)NS(=O)(=O)c1ccn(C2CCC2)n1 [Example 266, 1-Cyclobutyl-N-((5-(2-cyclopropoxypyridin-4-yl)-2,3-dihydrobenzofuran-4-yl)carbamoyl)-1H-pyrazole-3-sulfonamide, sodium salt]
≤ 500 | ≤ 500 | COc1cc(-c2ccc3c(c2NC(=O)NS(=O)(=O)c2ccn(CC4CC4)n2)CCO3)ccn1 [Example 267, 1-(Cyclopropylmethyl)-N-((5-(2-methoxypyridin-4-yl)-2,3-dihydrobenzofuran-4-yl)carbamoyl)-1H-pyrazole-3-sulfonamide, sodium salt]
≤ 500 | ≤ 500 | Cc1cc(-c2ccc3c(c2NC(=O)NS(=O)(=O)c2ccn(C4CCC4)n2)CCC3)ccn1 [Example 269, 1-Cyclobutyl-N-((5-(2-methylpyridin-4-yl)-2,3-dihydro-1H-inden-4-yl)carbamoyl)-1H-pyrazole-3-sulfonamide, sodium salt]
≤ 500 | ≤ 500 | Cc1cc(-c2ccc3c(c2NC(=O)NS(=O)(=O)c2ccn(C4CC4)n2)CCC3)ccn1 [Example 270, 1-Cyclopropyl-N-((5-(2-methylpyridin-4-yl)-2,3-dihydro-1H-inden-4-yl)carbamoyl)-1H-pyrazole-3-sulfonamide, sodium salt]
≤ 500 | ≤ 500 | N#Cc1cc(-c2ccc3c(c2NC(=O)NS(=O)(=O)c2ccn(CC4CC4)n2)CCC3)ccn1 [Example 271, N-((5-(2-Cyanopyridin-4-yl)-2,3-dihydro-1H-inden-4-yl)carbamoyl)-1-(cyclopropylmethyl)-1H-pyrazole-3-sulfonamide]
≤ 500 | ≤ 500 | CC(C)(CN1CCC1)n1ccc(S(=O)(=O)NC(=O)Nc2c(-c3ccnc(OC4CC4)c3)ccc3c2CCC3)n1 [Example 274, 1-(1-(Azetidin-1-yl)-2-methylpropan-2-yl)-N-((5-(2-cyclopropoxypyridin-4-yl)-2,3-dihydro-1H-inden-4-yl)carbamoyl)-1H-pyrazole-3-sulfonamide, sodium salt]
≤ 500 | ≤ 500 | O=C(Nc1c(-c2ccnc(OC(F)F)c2)ccc2c1CCO2)NS(=O)(=O)c1ccn(C2CCC2)n1 [Example 275, 1-Cyclobutyl-N-((5-(2-(difluoromethoxy)pyridin-4-yl)-2,3-dihydrobenzofuran-4-yl)carbamoyl)-1H-pyrazole-3-sulfonamide, sodium salt]
≤ 500 | ≤ 1000 | O=C(Nc1c(-c2ccnc(OC3CC3)c2)ccc2c1CCO2)NS(=O)(=O)c1ccn(C2CC2)n1 [Example 276, N-((5-(2-Cyclopropoxypyridin-4-yl)-2,3-dihydrobenzofuran-4-yl)carbamoyl)-1-cyclopropyl-1H-pyrazole-3-sulfonamide, sodium salt]
≤ 500 | ≤ 500 | O=C(Nc1c(-c2ccnc(OC(F)F)c2)ccc2c1CCO2)NS(=O)(=O)c1ccn(C2CC2)n1 [Example 277, 1-Cyclopropyl-N-((5-(2-(difluoromethoxy)pyridin-4-yl)-2,3-dihydrobenzofuran-4-yl)carbamoyl)-1H-pyrazole-3-sulfonamide, sodium salt]
≤ 500 | ≤ 500 | [2H]C([2H])([2H])Oc1cc(-c2ccc3c(c2NC(=O)NS(=O)(=O)c2ccn(C4CC4)n2)CCO3)ccn1 [Example 278, 1-Cyclopropyl-N-((5-(2-(methoxy-d3)pyridin-4-yl)-2,3-dihydrobenzofuran-4-yl)carbamoyl)-1H-pyrazole-3-sulfonamide, sodium salt]
≤ 500 | ≤ 500 | [2H]C([2H])([2H])Oc1cc(-c2ccc3c(c2NC(=O)NS(=O)(=O)c2ccn(C4CC4)n2)CCC3)ccn1 [Example 279, 1-Cyclopropyl-N-((5-(2-(methoxy-d3)pyridin-4-yl)-2,3-dihydro-1H-inden-4-yl)carbamoyl)-1H-pyrazole-3-sulfonamide, sodium salt]
≤ 500 | ≤ 500 | [2H]C([2H])([2H])Oc1cc(-c2ccc3c(c2NC(=O)NS(=O)(=O)c2ccn(C4CCC4)n2)CCO3)ccn1 [Example 280, 1-Cyclobutyl-N-((5-(2-(methoxy-d3)pyridin-4-yl)-2,3-dihydrobenzofuran-4-yl)carbamoyl)-1H-pyrazole-3-sulfonamide, sodium salt]
